Assays:
Type in all cases: cell-based, human
[1] = tested on: shear-induced platelet aggregation; assay: PFA-100 closure time, epinephrine/collagen cartridge; conditions: baseline 201 ± 22
Description: (§1) None of them received aspirin or any other anti-platelet agents. All subjects underwent blood sampling after at least 30 minutes of rest and 2 or more hours of fasting. Blood was drawn between 8 and 10 a.m. in order to avoid any diurnal influence and sampled from an antecubital vein using a 21-gauge butterfly needle containing 3.8% sodium citrate (1:9 volume) after having discarded the first 1.5 ml of free running blood. Eleven Vacutainer tubes (4.5 ml) were collected for a total of 49 ml of whole blood-citrate mixture from each study participant. One tube was kept as an internal control and was incubated with buffer solution. […] To avoid possible observer bias, blood samples were coded and blinded. Sampling procedures, and platelet studies were performed by individuals unaware of the protocol.
The platelet function analyzer (PFA-100′, Dade Behring, Deerfield, Ill.) is a device that simulates changes in primary hemostasis after injury to a small vessel under flow conditions. Kundu S K, et al., Semin Thromb Hemost 1995; 21(Suppl 2): 106-112. The time required to obtain occlusion of the aperture was digitally recorded as a measure of shear-induced platelet aggregation. Closure time determinations were performed in duplicate.

[2] = tested on: platelets (agglutination with fibrinogen-coated beads); assay: Ultegra rapid platelet-function assay (RPFA-ASA); conditions: baseline 159 ± 27
Description: as §1
A rapid platelet-function assay cartridge test (RPFA-ASA, Ultegra® Accumetrics, Inc., San Diego, Calif., USA), using polystyrene beads coated cartridges with lyophilized human fibrinogen-coated microparticles, and propyl gallat served as an agonist. The whole blood citrate mixture was added to the cartridge, and agglutination between platelets and coated beads was recorded. The data mirrored turbidometric platelet aggregation and reflected the degree of platelet prostaglandin blockade. Smith J W, et al., Circulation 1999; 99: 620-625. Ultegra® assays were performed in duplicate. An electronic quality control test was performed on each instrument every day of use prior to performing any subject samples.

[3] = tested on: platelet/endothelial cell adhesion molecule-1 (PECAM-1, CD31); assay: Whole blood flow cytometry, PECAM-1 expression; conditions: for Expression of platelet/endothelial cell adhesion molecule-1 (PECAM-1, CD31): baseline 69.2 ± 10.3
Description: as §1
(§2) The expression of platelet receptors was determined by using the following monoclonal antibodies: CD31 (platelet endothelial cell adhesion molecule (PECAM-1), CD41 (glycoprotein [GP] IIb/IIIa, (IIb (3), CD42b (GP Ib), CD 51/CD61 ((v (3, or vitronectin receptor), CD62p (P-selectin), CD107a (lysosome associated membrane protein-1; LAMP-1), CD 107b (LAMP-2), CD151 (platelet/endothelial tetraspan antigen-3; PETA-3), and PAC-1 for fibrinogen-platelet (PharMingen, San Diego, Calif.). Platelet-leukocyte interactions were assessed by using dual antibodies for a pan-platelet marker (CD 151), together with CD14, a monocyte/macrophage marker. The blood-citrate mixture (50 μl) was diluted with 450 μl Tris buffered saline (TBS) (10 mmol/L Tris, 0.15 mol/L sodium chloride) and mixed by gently inverting an Eppendorf tube 2 times. Five μl of the corresponding antibodies were then added to each solution and the samples were incubated for 30 minutes. After incubation, 400 μl of 2% buffered paraformaldehyde was added for fixation. The samples were analyzed by a Becton Dickinson FACScan flow cytometer set up to measure fluorescent light scatter, as described in Gurbel P A, et al., J Am Coll Cardiol. 1998; 31: 1466-1473. The data were collected in list mode files and then analyzed. P selectin was expressed as percent positive cells as described in Gurbel P A, et al, Am Heart J 2000; 139: 320-328. Other antigens were expressed as log mean fluorescence intensity.

[4] = tested on: platelet glycoprotein IIb/IIIa antigen (GPIIb, CD41); assay: Whole blood flow cytometry, GP IIb/IIIa antigen expression; conditions: for Expression of platelet glycoprotein IIb/IIIa antigen (GPIIb, CD41): baseline 521.8 ± 98.2
Description: as §1, §2

[5] = tested on: glycoprotein Ib (GPIb, CD42b); assay: Whole blood flow cytometry, GP Ib expression; conditions: for Expression of glycoprotein Ib (GPIb, CD42b): baseline 246.4 ± 26.7
Description: as §1, §2

[6] = tested on: platelet vitronectin receptor (CD51/CD61); assay: Whole blood flow cytometry, vitronectin receptor expression; conditions: whole blood flow cytometry
Description: as §1, §2

[7] = tested on: lysosome associated membrane protein -1 (LAMP-1, CD107a); assay: Whole blood flow cytometry, LAMP-1 expression; conditions: baseline 8.7 ± 3.2
Description: as §1, §2

[8] = tested on: platelet/endothelial tetraspan antigen -3 (PETA-3, CD151); assay: Whole blood flow cytometry, PETA-3 expression; conditions: for Expression of platelet/endothelial tetraspan antigen -3 (PETA-3, CD151): baseline 88.7 ± 24.2
Description: as §1, §2

[9] = tested on: platelet-leukocyte microparticles (CD151 + CD14); assay: Whole blood flow cytometry, platelet-leukocyte microparticles; conditions: for Formation of platelet-leukocyte microparticles (CD151 + CD14): baseline 92.2 ± 19.3
Description: as §1, §2

[10] = tested on: Glycoprotein IIb/IIIa activity (fibrinogen binding, PAC-1); assay: Whole blood flow cytometry, GP IIb/IIIa activity (PAC-1); conditions: for Glycoprotein IIb/IIIa activity (fibrinogen binding, PAC-1): baseline 10.3 ± 2.8
Description: as §1, §2

## CCCCC(=O)N(Cc1ccc(-c2ccccc2-c2nnn[nH]2)cc1)[C@H](C(=O)O)C(C)C [Valsartan, (S)-N-(1-carboxy-2-methyl-prop-1-yl)-N-pentanoyl-N-[2;(1H-tetrazol-5-yl)biphenyl-4-yl-methyl]amine, reference compound]
[1]; drug 10 nM
  PFA-100 closure time with the epinephrine/collagen cartridge: 187 ± 30 s
[1]; drug 100 nM
  PFA-100 closure time with the epinephrine/collagen cartridge: 209 ± 21 s
[1]; drug 1 μM
  PFA-100 closure time with the epinephrine/collagen cartridge: 268 ± 19 s
[1]; drug 10 μM
  PFA-100 closure time with the epinephrine/collagen cartridge: 278 ± 20 s
[1]; drug 100 μM
  PFA-100 closure time with the epinephrine/collagen cartridge: 200 ± 27 s
[2]; drug 10 nM
  Ultegra Analyzer: 164 ± 16 platelet activation units
[2]; drug 100 nM
  Ultegra Analyzer: 160 ± 29 platelet activation units
[2]; drug 1 μM
  Ultegra Analyzer: 129 ± 26 platelet activation units
[2]; drug 10 μM
  Ultegra Analyzer: 130 ± 31 platelet activation units
[2]; drug 100 μM
  Ultegra Analyzer: 152 ± 19 platelet activation units
[3]; drug 10 nM
  Expression of platelet/endothelial cell adhesion molecule-1 (PECAM-1, CD31): 71.8 ± 11.9 log MFI
[3]; drug 100 nM
  Expression of platelet/endothelial cell adhesion molecule-1 (PECAM-1, CD31): 70.6 ± 12.6 log MFI
[3]; drug 1 μM
  Expression of platelet/endothelial cell adhesion molecule-1 (PECAM-1, CD31): 74.5 ± 16.2 log MFI
[3]; drug 10 μM
  Expression of platelet/endothelial cell adhesion molecule-1 (PECAM-1, CD31): 68.2 ± 16.2 log MFI
[3]; drug 100 μM
  Expression of platelet/endothelial cell adhesion molecule-1 (PECAM-1, CD31): 70.6 ± 15.8 log MFI
[3]; whole blood flow cytometry
  Effect on PECAM-1 (CD31) (in words): not associated with any effect
[4]; drug 10 nM
  Expression of platelet glycoprotein IIb/IIIa antigen (GPIIb, CD41): 531.2 ± 102.5 log MFI
[4]; drug 100 nM
  Expression of platelet glycoprotein IIb/IIIa antigen (GPIIb, CD41): 502.9 ± 112.7 log MFI
[4]; drug 1 μM
  Expression of platelet glycoprotein IIb/IIIa antigen (GPIIb, CD41): 498.2 ± 94.5 log MFI
[4]; drug 10 μM
  Expression of platelet glycoprotein IIb/IIIa antigen (GPIIb, CD41): 506.7 ± 100.1 log MFI
[4]; drug 100 μM
  Expression of platelet glycoprotein IIb/IIIa antigen (GPIIb, CD41): 455.2 ± 99.6 log MFI
[4]; whole blood flow cytometry
  Effect on expression of GP IIb/IIIa (CD 41) (in words): decreased expression of CD41 only at a high dose
[5]; drug 10 nM
  Expression of glycoprotein Ib (GPIb, CD42b): 256.4 ± 31.4 log MFI
[5]; drug 100 nM
  Expression of glycoprotein Ib (GPIb, CD42b): 248.7 ± 20.9 log MFI
[5]; drug 1 μM
  Expression of glycoprotein Ib (GPIb, CD42b): 264.8 ± 18.2 log MFI
[5]; drug 10 μM
  Expression of glycoprotein Ib (GPIb, CD42b): 244.3 ± 46.9 log MFI
[5]; drug 100 μM
  Expression of glycoprotein Ib (GPIb, CD42b): 255.9 ± 19.7 log MFI
[5]; whole blood flow cytometry
  Effect on GP Ib (CD42) (in words): not associated with any effect
[6]
  Effect on expression of vitronectin receptors (in words): moderately reduced
[7]; drug 10 nM
  Expression of lysosome associated membrane protein -1 (LAMP-1, CD107a): 9.1 ± 3.8 log MFI
[7]; drug 100 nM
  Expression of lysosome associated membrane protein -1 (LAMP-1, CD107a): 8.9 ± 2.7 log MFI
[7]; drug 1 μM
  Expression of lysosome associated membrane protein -1 (LAMP-1, CD107a): 9.4 ± 3.9 log MFI
[7]; drug 10 μM
  Expression of lysosome associated membrane protein -1 (LAMP-1, CD107a): 6.5 ± 3.2 log MFI
[7]; drug 100 μM
  Expression of lysosome associated membrane protein -1 (LAMP-1, CD107a): 10.1 ± 4.5 log MFI
[8]; drug 10 nM
  Expression of platelet/endothelial tetraspan antigen -3 (PETA-3, CD151): 84.1 ± 19.7 log MFI
[8]; drug 100 nM
  Expression of platelet/endothelial tetraspan antigen -3 (PETA-3, CD151): 91.5 ± 23.4 log MFI
[8]; drug 1 μM
  Expression of platelet/endothelial tetraspan antigen -3 (PETA-3, CD151): 81.6 ± 20.1 log MFI
[8]; drug 10 μM
  Expression of platelet/endothelial tetraspan antigen -3 (PETA-3, CD151): 87.9 ± 18.3 log MFI
[8]; drug 100 μM
  Expression of platelet/endothelial tetraspan antigen -3 (PETA-3, CD151): 91.7 ± 22.1 log MFI
[8]; whole blood flow cytometry
  Effect on PETA-3 (CD151) (in words): not associated with any effect
[9]; drug 10 nM
  Formation of platelet-leukocyte microparticles (CD151 + CD14): 91.2 ± 20.5 log MFI
[9]; drug 100 nM
  Formation of platelet-leukocyte microparticles (CD151 + CD14): 88.4 ± 21.9 log MFI
[9]; drug 1 μM
  Formation of platelet-leukocyte microparticles (CD151 + CD14): 93.5 ± 23.8 log MFI
[9]; drug 10 μM
  Formation of platelet-leukocyte microparticles (CD151 + CD14): 96.5 ± 18.7 log MFI
[9]; drug 100 μM
  Formation of platelet-leukocyte microparticles (CD151 + CD14): 90.5 ± 19.2 log MFI
[9]; whole blood flow cytometry
  Effect on platelet-leukocyte microparticles (CD151+14) (in words): not associated with any effect
[10]; drug 10 nM
  Glycoprotein IIb/IIIa activity (fibrinogen binding, PAC-1): 9.3 ± 2.87 log MFI
[10]; drug 100 nM
  Glycoprotein IIb/IIIa activity (fibrinogen binding, PAC-1): 11.2 ± 3.4 log MFI
[10]; drug 1 μM
  Glycoprotein IIb/IIIa activity (fibrinogen binding, PAC-1): 7.0 ± 2.9 log MFI
[10]; drug 10 μM
  Glycoprotein IIb/IIIa activity (fibrinogen binding, PAC-1): 6.9 ± 2.7 log MFI
[10]; drug 100 μM
  Glycoprotein IIb/IIIa activity (fibrinogen binding, PAC-1): 9.9 ± 3.1 log MFI
[10]; whole blood flow cytometry
  Effect on fibrinogen binding (PAC-1) (in words): slightly reduced

— US20050197372A1 (priority 2002, published 2005)
